According to PubChem BioAssay AID1918991 (Molecular Pharmacology Branch, DTP, NCI, 2023):
Where “and” joins values, the source holds several entries; their conditions need not be identical. Equal entries are not always repeated.

Tested on: 186277-243-T-J2-PDC complex spheroid growth
Assay: Anticancer human tumor 186277-243-T-J2-PDC patient-derived colon adenocarcinoma cell line growth inhibition [AhR]
Conditions: for viability, T/C: stronger effect = lower value
Excerpt: Multicellular complex tumor spheroid response to aryl hydrocarbon receptor antagonists in combination with a variety of drugs and investigational agents in selected tumor cell lines
The current study was undertaken to assess response to aryl hydrocarbon receptor antagonists in combination with standard-of-care drugs and investigational agents in solid tumor complex spheroid models. Complex spheroids include a stromal component modeled by human endothelial cells (HUVEC) and fibroblasts modeled by human mesenchymal stem cells (MSCs). The concentration ranges selected for each drug and investigational agent were based upon clinically achievable concentrations if the clinical Cmax of the agent was known.
Compounds. The drugs and investigational agents: BAY 2416964 (NSC825713), GNF351 (NSC835774), CH-223191 (NSC835775), CPI-455 (NSC825282), aza-TdCyd (NSC777586), decitabine (NSC127716), belinostat (NSC758774), entinostat (NSC756642), pevonedistat (NSC761192), tazemetostat (NSC777109), talazoparib (NSC765396), olaparib (NSC753686), selinexor (NSC780203), nedisertib (M3814, NSC802822), bortezomib (NSC756655), venetoclax (NSC766270), doxorubicin (NSC123127), elimusertib (BAY189344, NSC800525), ceralasertib (AZD6738, NSC777638), TAK-243 (NSC785004), alisertib (NSC759677), etoposide (NSC141540), topotecan (NSC609699), eribulin (NSC707389), gemcitabine (NSC613327), carboplatin (NSC241240), cisplatin (NSC119875), and SN-38 (NSC673596) were obtained from the National Cancer Institute (NCI) Developmental Therapeutics Program Chemical Repository (32). The FDA-approved anticancer drug set is available from the Developmental Therapeutics Program at https://dtp.cancer.gov/organization/dscb/obtaining/available plates.htm. […] The stock solutions were prepared in dimethyl sulfoxide (DMSO, Sigma-Aldrich, St. Louis, MO, cat. D2650), except for the platinum compounds which were prepared in saline (Quality Biological, Gaithersburg, MD, cat. 114-055-101), at 800-fold the tested concentration and stored at -70 degrees C prior to their use. All drugs and investigational agents were tested over a range starting from a high concentration at or near the clinical Cmax and decreasing in half-log increments. If the clinical Cmax for an agent had not been determined, the highest concentration tested was 10 microM (Table 1).
Cell Culture. All cells were maintained in an incubator at 37 degrees C and 5% CO2 with 95% humidity. The PDC lines were cultured according to standard operating procedures established by the NCI PDMR (https://pdmr.cancer.gov). Briefly, all PDCs were thawed and cultured in Matrigel-coated flasks prepared with a working solution of 1X Ham's F-12 nutrient mix, without supplementation (Invitrogen, Waltham, MA, cat. 11765054), 100 U/mL penicillin-streptomycin (Invitrogen, cat. 15140122), and 2.5% Matrigel (Corning Inc., Corning, NY, cat. 354248) for the first three passages. All PDCs were cultured in complete DMEM/F-12 media containing advanced DMEM/F-12 (Invitrogen, cat. 12634028), 4.9% defined fetal bovine serum, heat inactivated (HyClone Laboratories Inc., Logan, UT, cat. SH30070.03HI), 389 ng/mL hydrocortisone (Sigma-Aldrich, cat. H4001), 9.7 ng/mL human EGF recombinant protein (Invitrogen, cat. PHG0313), 23.4 microg/mL adenine (Sigma-Aldrich, cat. A2786), 97.3 U/mL penicillin-streptomycin (Invitrogen, cat. 15140122), 1.9 mM L-glutamine (Invitrogen, cat. 25030081), and 9.7 microM Y-27632 dihydrochloride (Tocris Bioscience, Bristol, United Kingdom, cat. 1254). The PDCs were cultured in complete DMEM/F12 media without 10 microM Y-27632 dihydrochloride for at least two passages prior to the screen. The established cell lines NCI-H1341 and […] were cultured in DMEM/F-12, HEPES (Invitrogen, cat. 11330032), 5% defined fetal bovine serum (HyClone Laboratories Inc., cat. SH30070.03), ITS premix universal culture supplement [insulin (5 microg/mL), transferrin (5 microg/mL), and selenious acid (5 ng/mL)] […]

[1] = curve of first compound, second compound 0.1 µM
[2] = curve of first compound, second compound 0.316 µM
[3] = curve of first compound, second compound 1 µM
[4] = curve of first compound, second compound 3.16 µM
[5] = curve of first compound, second compound 10 µM
[6] = second compound 0.1 µM, first compound 0.0316 µM
[7] = second compound 0.1 µM, first compound 0.1 µM
[8] = second compound 0.1 µM, first compound 0.316 µM
[9] = second compound 0.1 µM, first compound 1 µM
[10] = second compound 0.316 µM, first compound 0.0316 µM
[11] = second compound 0.316 µM, first compound 0.1 µM
[12] = second compound 0.316 µM, first compound 0.316 µM
[13] = second compound 0.316 µM, first compound 1 µM
[14] = second compound 1 µM, first compound 0.0316 µM
[15] = second compound 1 µM, first compound 0.1 µM
[16] = second compound 1 µM, first compound 0.316 µM
[17] = second compound 1 µM, first compound 1 µM
[18] = second compound 3.16 µM, first compound 0.0316 µM
[19] = second compound 3.16 µM, first compound 0.1 µM
[20] = second compound 3.16 µM, first compound 0.316 µM
[21] = second compound 3.16 µM, first compound 1 µM
[22] = second compound 10 µM, first compound 0.0316 µM
[23] = second compound 10 µM, first compound 0.1 µM
[24] = second compound 10 µM, first compound 0.316 µM
[25] = second compound 10 µM, first compound 1 µM
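Also: spheroids exposed to compounds for seven days before the viability read.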
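For viability, T/C in this document: luminescent signal used as a stand-in for viable cell amount; 100% = DMSO vehicle control wells.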

## O=C(C=Cc1cccc(S(=O)(=O)Nc2ccccc2)c1)NO + Cc1ccccc1N=Nc1ccc(NC(=O)c2ccnn2C)c(C)c1
[1]
  IC50: 2020 nM
[2]
  IC50: 1740 nM
[3]
  IC50: 1900 nM
[4]
  IC50: 1660 nM
[5]
  IC50: 1470 nM
[6]
  viability, T/C: 114%
[7]
  viability, T/C: 104%
[8]
  viability, T/C: 96.2%
[9]
  viability, T/C: 88.8%
Second compound 0.1 µM, first compound 3.16 µM
  viability, T/C: 25.4%
Second compound 0.1 µM, first compound 10 µM
  viability, T/C: 4.8%
[10]
  viability, T/C: 96.7%
[11]
  viability, T/C: 114%
[12]
  viability, T/C: 101%
[13]
  viability, T/C: 74.7%
Second compound 0.316 µM, first compound 3.16 µM
  viability, T/C: 23.2%
Second compound 0.316 µM, first compound 10 µM
  viability, T/C: 4.82%
[14]
  viability, T/C: 104%
[15]
  viability, T/C: 100%
[16]
  viability, T/C: 108%
[17]
  viability, T/C: 84.7%
Second compound 1 µM, first compound 3.16 µM
  viability, T/C: 22.3%
Second compound 1 µM, first compound 10 µM
  viability, T/C: 4.07%
[18]
  viability, T/C: 91.5%
[19]
  viability, T/C: 114%
[20]
  viability, T/C: 112%
[21]
  viability, T/C: 74.5%
Second compound 3.16 µM, first compound 3.16 µM
  viability, T/C: 18.4%
Second compound 3.16 µM, first compound 10 µM
  viability, T/C: 3%
[22]
  viability, T/C: 89.8%
[23]
  viability, T/C: 97.8%
[24]
  viability, T/C: 96.5%
[25]
  viability, T/C: 65%
Second compound 10 µM, first compound 3.16 µM
  viability, T/C: 18.8%
Second compound 10 µM, first compound 10 µM
  viability, T/C: 3.18%

## Nc1ncn(C2CC(O)C(CO)O2)c(=O)n1 (configuration not stated) + Cc1cncc(-c2nc(NCCc3c[nH]c4ccccc34)c3ncn(C(C)C)c3n2)c1
[1]
  IC50: > 1000 nM
[2]
  IC50: > 1000 nM
[3]
  IC50: > 1000 nM
[4]
  IC50: > 1000 nM
[5]
  IC50: > 1000 nM
Second compound 0.1 µM, first compound 0.00316 µM
  viability, T/C: 116%
Second compound 0.1 µM, first compound 0.01 µM
  viability, T/C: 86.8%
[6]
  viability, T/C: 91.4%
[7]
  viability, T/C: 119%
[8]
  viability, T/C: 147%
[9]
  viability, T/C: 143%
Second compound 0.316 µM, first compound 0.00316 µM
  viability, T/C: 120%
Second compound 0.316 µM, first compound 0.01 µM
  viability, T/C: 93.6%
[10]
  viability, T/C: 107%
[11]
  viability, T/C: 113%
[12]
  viability, T/C: 137%
[13]
  viability, T/C: 150%
Second compound 1 µM, first compound 0.00316 µM
  viability, T/C: 98.5%
Second compound 1 µM, first compound 0.01 µM
  viability, T/C: 104%
[14]
  viability, T/C: 99.9%
[15]
  viability, T/C: 126%
[16]
  viability, T/C: 156%
[17]
  viability, T/C: 157%
Second compound 3.16 µM, first compound 0.00316 µM
  viability, T/C: 114%
Second compound 3.16 µM, first compound 0.01 µM
  viability, T/C: 113%
[18]
  viability, T/C: 111%
[19]
  viability, T/C: 118%
[20]
  viability, T/C: 120%
[21]
  viability, T/C: 165%
Second compound 10 µM, first compound 0.00316 µM
  viability, T/C: 59.8%
Second compound 10 µM, first compound 0.01 µM
  viability, T/C: 65.1%
[22]
  viability, T/C: 56.7%
[23]
  viability, T/C: 46.6%
[24]
  viability, T/C: 52.6%
[25]
  viability, T/C: 68.6%

## CCN(c1cc(-c2ccc(CN3CCOCC3)cc2)cc(C(=O)NCc2c(C)cc(C)[nH]c2=O)c1C)C1CCOCC1 + CC(CO)NC(=O)c1cc(-c2ccc(Cl)cc2)nn(-c2cnn(C)c2)c1=O
[1]
  IC50: > 3000 nM
[2]
  IC50: > 3000 nM
[3]
  IC50: > 3000 nM
[4]
  IC50: > 3000 nM
[5]
  IC50: > 3000 nM
Second compound 0.1 µM, first compound 0.00949 µM
  viability, T/C: 97.8%
Second compound 0.1 µM, first compound 0.03 µM
  viability, T/C: 106%
Second compound 0.1 µM, first compound 0.0949 µM
  viability, T/C: 82.9%
Second compound 0.1 µM, first compound 0.3 µM
  viability, T/C: 94.5%
Second compound 0.1 µM, first compound 0.949 µM
  viability, T/C: 102%
Second compound 0.1 µM, first compound 3 µM
  viability, T/C: 85.1%
Second compound 0.316 µM, first compound 0.00949 µM
  viability, T/C: 109%
Second compound 0.316 µM, first compound 0.03 µM
  viability, T/C: 95.8%
Second compound 0.316 µM, first compound 0.0949 µM
  viability, T/C: 89.8%
Second compound 0.316 µM, first compound 0.3 µM
  viability, T/C: 93.3%
Second compound 0.316 µM, first compound 0.949 µM
  viability, T/C: 90.3%
Second compound 0.316 µM, first compound 3 µM
  viability, T/C: 91.9%
Second compound 1 µM, first compound 0.00949 µM
  viability, T/C: 83.5%
Second compound 1 µM, first compound 0.03 µM
  viability, T/C: 90.5%
Second compound 1 µM, first compound 0.0949 µM
  viability, T/C: 88.2%
Second compound 1 µM, first compound 0.3 µM
  viability, T/C: 87.8%
Second compound 1 µM, first compound 0.949 µM
  viability, T/C: 82.2%
Second compound 1 µM, first compound 3 µM
  viability, T/C: 101%
Second compound 3.16 µM, first compound 0.00949 µM
  viability, T/C: 96.5%
Second compound 3.16 µM, first compound 0.03 µM
  viability, T/C: 101%
Second compound 3.16 µM, first compound 0.0949 µM
  viability, T/C: 89.4%
Second compound 3.16 µM, first compound 0.3 µM
  viability, T/C: 80.7%
Second compound 3.16 µM, first compound 0.949 µM
  viability, T/C: 92.3%
Second compound 3.16 µM, first compound 3 µM
  viability, T/C: 85.8%
Second compound 10 µM, first compound 0.00949 µM
  viability, T/C: 88.5%
Second compound 10 µM, first compound 0.03 µM
  viability, T/C: 69.8%
Second compound 10 µM, first compound 0.0949 µM
  viability, T/C: 80.5%
Second compound 10 µM, first compound 0.3 µM
  viability, T/C: 87.4%
Second compound 10 µM, first compound 0.949 µM
  viability, T/C: 73.5%
Second compound 10 µM, first compound 3 µM
  viability, T/C: 82.6%

## Nc1ncn(C2CC(O)C(CO)O2)c(=O)n1 (configuration not stated)
Compound 0.00316 µM
  viability, T/C: 102% and 96.5% and 89.6%
Compound 0.01 µM
  viability, T/C: 104% and 110% and 93.2%
Compound 0.0316 µM
  viability, T/C: 98.8% and 108% and 88.1%
Compound 0.1 µM
  viability, T/C: 114% and 107% and 76.6%
Compound 0.316 µM
  viability, T/C: 137% and 110% and 65.2%
Compound 1 µM
  viability, T/C: 133% and 121% and 49.5%
Curve of compound
  IC50: > 1000 nM and 982 nM
